From EP1079849B1, “USE OF HMG PROTEINS FOR THE PREPARATION OF MEDICAMENTS HAVING CYTOTOXIC ACTIVITY” (Istituto Di Ricerche " Giorgio Sisini", priority 1998, dated 2002)

Tested on: tumors
Assay: DMBA-induced tumor growth in rats
Settings: female rats with DMBA-induced tumors; control = saline solution; result in words

Peptide 1-19: peptide 1-19 of HMG-I, commercially available from Santa Cruz Biotechnology, Santa Cruz, CA, USA (MSESSSKSSQPLASKQEKD; UniProt P17096 1-19, looked up, fragment)
tumor growth in comparison to the control: clearly slow down the tumor growth
